Experimental findings from patent US4725676A, “5-(3,5-disubstituted phenylazo)-2-hydroxybenzene-acetic acids and salts and lactones thereof having a potentially inhibitory effect on 15-hydroxy-prostaglandin dehydrogenase” (Pharmacia AB, priority 1984, dated 1988) are described below.

Holding throughout (format): biochemical
The target of one assay is T1, PGDH from rat colon (Rattus norvegicus, UniProt O08699).
T1 construct: PGDH from rat colon; from tissue; host or cells: rat colon
T1 sequence (O08699 1-266): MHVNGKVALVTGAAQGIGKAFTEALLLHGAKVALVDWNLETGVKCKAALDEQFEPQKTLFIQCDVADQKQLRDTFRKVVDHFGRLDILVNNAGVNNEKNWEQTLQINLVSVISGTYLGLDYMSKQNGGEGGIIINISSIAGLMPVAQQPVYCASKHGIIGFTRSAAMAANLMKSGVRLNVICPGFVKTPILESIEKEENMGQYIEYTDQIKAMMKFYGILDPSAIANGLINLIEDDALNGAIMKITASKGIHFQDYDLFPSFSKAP
In words: Inhibition of PGDH from rat colon. The note with it: similarly tested, read-out: 50% PGDH inhibition at. How it is done:
(§1) Radioactively labelled prostaglandin PGF 2 was incubated with the enzyme as according to Berry, C. N. et al., Biochem. Pharmacol. 1983, Vol. 32, p. 2863.
(§2) The compound of Example 2 was added in various concentrations, and the inhibition was measured as stated above.
When similarly tested against PGDH from rat colon the compound gave 50% PGDH inhibition at 56 nM. […] It should be noted that (V) is the strongest inhibitor of this type known in the literature.

The next assay deals with cyclooxygenase. As to the kind of experiment: Inhibition of cyclooxygenase. The note with it: at concentrations of from 10 to 1,000 nM.
A further assay concerns the target T2, human PGDH (Homo sapiens, UniProt P15428).
T2 construct: human PGDH isolated from placenta; from tissue; host or cells: human placenta
T2 sequence (P15428 1-266): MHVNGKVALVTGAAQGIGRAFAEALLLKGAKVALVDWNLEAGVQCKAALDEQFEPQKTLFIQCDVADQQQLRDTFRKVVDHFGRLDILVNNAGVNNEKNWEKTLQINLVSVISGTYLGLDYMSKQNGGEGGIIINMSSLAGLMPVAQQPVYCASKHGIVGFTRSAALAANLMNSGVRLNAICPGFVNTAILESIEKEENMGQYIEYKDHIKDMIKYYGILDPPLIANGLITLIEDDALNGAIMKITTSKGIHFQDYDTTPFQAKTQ
In words: Inhibitory effect on human PGDH isolated from placenta. The note with it: radioactively labelled prostaglandin PGF 2, read-out: 50% PGDH inhibition at a concentration of. How it is done: The compound of Example 2 was studied in respect of its inhibitory effect on human PGDH isolated from placenta.
as §1, §2

On to `COC(=O)c1cc(N=Nc2ccc(O)c(CC(=O)O)c2)cc(C(=O)OC)c1` [Example 2, 5-(3,5-bis-(methoxycarbonyl)-phenylazo)-2-hydroxy-phenylacetic acid], for which the IC50 was found to be 56 nM on PGDH from rat colon and 28 nM at human PGDH. Moreover, the “inhibition of cyclooxygenase detected” value in the assay with cyclooxygenase is on record as “No inhibition whatever”.

On to `CCOC(=O)c1ccc(N=Nc2ccc(O)c(CC(=O)O)c2)cc1` [V, reference compound], for which the IC50 at human PGDH came to 290 nM.
